Experimental data: ChEMBL document CHEMBL1201862, “PubChem BioAssay data set” (2004)
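Grown in 96-well plates, cells were treated for 48 hours with each compound at five concentrations. Insufficient inhibition: endpoint recorded as highest concentration tested. GI50: concentration for 50% inhibition of growth.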 Activity calls are given as the source filed them. Rule as the data show it: active = GI50 up to about 1.1 µM and inactive = higher.

Assays:
Experiment in all cases: growth of human tumour cells (NCI), 48 h
786-0 = test system: 786-0
ACHN = test system: ACHN
HCT-116 = test system: HCT-116
HOP-62 = test system: HOP-62
HT-29 = test system: HT-29
KM12 = test system: KM12
M14 = test system: M14
MCF7 = test system: MCF7
MDA-MB-435 = test system: MDA-MB-435
MOLT-4 = test system: MOLT-4
Malme-3M = test system: Malme-3M
NCI-H23 = test system: NCI-H23
NCI-H460 = test system: NCI-H460
OVCAR-8 = test system: OVCAR-8
PC-3 = test system: PC-3
SK-OV-3 = test system: SK-OV-3
SNB-75 = test system: SNB-75
U-251 = test system: U-251
UACC-62 = test system: UACC-62
MDA-N = test system: MDA-N

Measured: GI50

O=S1(=O)OC(c2ccc(O)cc2)(c2ccc(O)cc2)c2ccccc21 [PHENOLSULFONPHTHALEIN]
inactive: 786-0 > 100 µM | ACHN > 100 µM | HCT-116 > 100 µM | HOP-62 > 100 µM | HT-29 > 100 µM | KM12 > 100 µM | M14 > 100 µM | MCF7 > 100 µM | MDA-MB-435 > 100 µM | MOLT-4 > 100 µM | Malme-3M > 100 µM | NCI-H23 > 100 µM | NCI-H460 > 100 µM | OVCAR-8 > 100 µM | PC-3 > 100 µM | SK-OV-3 > 100 µM | SNB-75 > 100 µM | U-251 > 100 µM | UACC-62 > 100 µM

CO/N=C(\C(=O)[N-]n1cn[n+](CC(=O)OC(C)(C)C)c1)c1csc(NC(c2ccccc2)(c2ccccc2)c2ccccc2)n1
inactive: 786-0 > 10 µM | ACHN > 10 µM | HCT-116 > 10 µM | HOP-62 > 10 µM | HT-29 > 10 µM | KM12 > 10 µM | M14 > 10 µM | MCF7 > 10 µM | MDA-N > 10 µM | MOLT-4 > 10 µM | Malme-3M > 10 µM | NCI-H23 > 10 µM | NCI-H460 > 10 µM | OVCAR-8 > 10 µM | PC-3 > 10 µM | SK-OV-3 > 10 µM | SNB-75 > 10 µM | U-251 > 10 µM

Nc1ccc(C(=O)N/C(=C\c2cccc([N+](=O)[O-])c2)c2nc3ccccc3[nH]2)cc1
inactive: 786-0 28.4 µM | ACHN 40.6 µM | HCT-116 41.4 µM | HOP-62 21.8 µM | HT-29 > 100 µM | KM12 > 100 µM | M14 > 100 µM | MOLT-4 > 100 µM | Malme-3M 57.3 µM | NCI-H23 > 75.9 µM | NCI-H460 74.8 µM | OVCAR-8 33.1 µM | SK-OV-3 29.2 µM | SNB-75 23.3 µM | U-251 41.4 µM | UACC-62 46 µM

Cc1cc2c(c(S(=O)(=O)c3ccc(Cl)cc3[N+](=O)[O-])c1)NCCC2
inactive: 786-0 > 100 µM | ACHN 18.3 µM | HOP-62 50.9 µM | HT-29 66.1 µM | KM12 35.1 µM | M14 41.9 µM | MCF7 59.6 µM | MDA-MB-435 42.9 µM | Malme-3M > 100 µM | NCI-H23 45 µM | NCI-H460 74.1 µM | OVCAR-8 > 100 µM | PC-3 9.64 µM | SK-OV-3 > 100 µM | SNB-75 > 100 µM | U-251 > 100 µM | UACC-62 8.11 µM

COc1ccc(/C=C2/S/C(=N\c3ccccc3)N(NC(=O)Cc3ccccc3)C2=O)c(OC)c1
inactive: 786-0 > 100 µM | ACHN > 100 µM | HCT-116 > 100 µM | HOP-62 > 100 µM | HT-29 > 100 µM | KM12 > 100 µM | M14 > 100 µM | MCF7 > 100 µM | MDA-MB-435 > 100 µM | MDA-N > 100 µM | MOLT-4 68.7 µM | NCI-H23 > 100 µM | NCI-H460 > 100 µM | OVCAR-8 > 100 µM | SK-OV-3 > 100 µM | SNB-75 > 100 µM | U-251 > 100 µM | UACC-62 > 100 µM

CCCN/C(N)=N/C#N
inactive: 786-0 25.3 µM | ACHN > 100 µM | HCT-116 67 µM | HOP-62 > 100 µM | HT-29 30.8 µM | KM12 > 100 µM | M14 > 100 µM | MOLT-4 > 100 µM | Malme-3M > 100 µM | NCI-H23 > 100 µM | NCI-H460 > 100 µM | OVCAR-8 > 100 µM | SK-OV-3 > 100 µM | SNB-75 > 100 µM | U-251 46.7 µM | UACC-62 > 100 µM

CN(C(=O)C12C3C4C1C1C4(C(=O)C45C6C7C4C4C5C6C74C)C3C12C)C(C)(C)C (configuration not stated)
inactive: 786-0 67.9 µM | ACHN 74.3 µM | HCT-116 52.7 µM | HOP-62 > 100 µM | HT-29 17.5 µM | KM12 78.7 µM | M14 > 100 µM | MOLT-4 40.3 µM | Malme-3M > 100 µM | NCI-H23 70.5 µM | NCI-H460 54.6 µM | OVCAR-8 > 100 µM | SK-OV-3 90.4 µM | SNB-75 > 100 µM | U-251 79.3 µM | UACC-62 48.3 µM

CC(C)CC(Nc1c(O)ccc2ccccc12)C(=O)O (configuration not stated)
inactive: 786-0 59.3 µM | ACHN 22.9 µM | HCT-116 27.9 µM | HOP-62 83.9 µM | HT-29 81.8 µM | KM12 30.6 µM | M14 37.8 µM | MCF7 41.2 µM | MDA-MB-435 17.3 µM | MOLT-4 33 µM | Malme-3M 15.2 µM | NCI-H23 19.5 µM | NCI-H460 35.2 µM | SK-OV-3 27.2 µM | SNB-75 32.3 µM | U-251 29.8 µM | UACC-62 23.8 µM
